Literature values in patent publication US20050175599A1, “Process for producing substance” (Kyowa Hakko Kogyo Co., Ltd., priority 2001, published 2005).

How the values were obtained:
[1] = tested on: HeLa cells; conditions: ubiquinone added to media; Protoplasma, 184, 214 (1995); cited from earlier work
[2] = tested on: bovine embryo cells; conditions: ubiquinone added to media; Biol. Reprod., 61, 541 (1999); cited from earlier work
[3] = tested on: murine fibroblast cells; conditions: ubiquinone added to media; Protoplasma, 184, 214 (1995); cited from earlier work

Measured: effect on cell growth

COC1=C(OC)C(=O)C(C/C=C(\C)CC/C=C(\C)CC/C=C(\C)CC/C=C(\C)CC/C=C(\C)CC/C=C(\C)CC/C=C(\C)CC/C=C(\C)CC/C=C(\C)CCC=C(C)C)=C(C)C1=O [ubiquinone, 2,3-dimethoxy-5-methyl-6-polyprenyl-1,4-benzoquinone]
promotes the growth: all assays above
